Experimental data reported in ChEMBL document CHEMBL1201862, “PubChem BioAssay data set” (2004).
Structures can show the parent of a compound that is named as a salt.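 Growth conditions: 96-well plates. Treatment: test compound, 48 hours, 5 concentrations. Analysis: linear interpolation between bracketing concentrations; unreached endpoints set to highest concentration. Abbreviation: GI50, concentration required for 50% inhibition of growth.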 The source made the active and inactive calls. Rule as the data show it: active = GI50 up to about 1.1 µM and inactive = higher.

Legend:
Assay in all cases: inhibition of tumour cell growth, NCI panel, 48 h
NCI-H23 = test system: NCI-H23
CCRF-CEM = test system: CCRF-CEM
A549 = test system: A549
CAKI-1 = test system: CAKI-1
OVCAR-3 = test system: OVCAR-3
UO-31 = test system: UO-31
EKVX = test system: EKVX
MOLT-4 = test system: MOLT-4
SF-539 = test system: SF-539
RXF 393 = test system: RXF 393
Malme-3M = test system: Malme-3M
RPMI-8226 = test system: RPMI-8226
SNB-75 = test system: SNB-75
KM12 = test system: KM12
M19-MEL = test system: M19-MEL
HOP-92 = test system: HOP-92
DMS-273 = test system: DMS-273
HT-29 = test system: HT-29
SK-MEL-5 = test system: SK-MEL-5
HCT-116 = test system: HCT-116
DMS-114 = test system: DMS-114
OVCAR-5 = test system: OVCAR-5
U-251 = test system: U-251
COLO 205 = test system: COLO 205
LOX IMVI = test system: LOX IMVI
SF-268 = test system: SF-268
K562 = test system: K562
SK-OV-3 = test system: SK-OV-3
DLD-1 = test system: DLD-1
UACC-62 = test system: UACC-62
NCI-H226 = test system: NCI-H226
HOP-62 = test system: HOP-62
KM-20L2 = test system: KM-20L2
IGROV-1 = test system: IGROV-1
OVCAR-8 = test system: OVCAR-8
A498 = test system: A498
NCI-H522 = test system: NCI-H522
HCC 2998 = test system: HCC 2998
SW-620 = test system: SW-620
MCF7 = test system: MCF7
XF498 = test system: XF498
HCT-15 = test system: HCT-15
HOP-18 = test system: HOP-18
SK-MEL-28 = test system: SK-MEL-28
SNB-78 = test system: SNB-78
OVCAR-4 = test system: OVCAR-4
SK-MEL-2 = test system: SK-MEL-2
SNB-19 = test system: SNB-19
UACC-257 = test system: UACC-257
SN12C = test system: SN12C
NCI-H460 = test system: NCI-H460
SF-295 = test system: SF-295
HL-60 = test system: HL-60
NCI/ADR-RES = test system: NCI/ADR-RES
BT-549 = test system: BT-549
PC-3 = test system: PC-3
T47D = test system: T47D
DU-145 = test system: DU-145
SR = test system: SR
MDA-N = test system: MDA-N
MDA-MB-435 = test system: MDA-MB-435
TK-10 = test system: TK-10
ACHN = test system: ACHN
M14 = test system: M14
LXFL 529 = test system: LXFL 529

In the case of `O=C(O)c1cn2c3c(cc(N4CCN(CCO)CC4)cc3c1=O)SCC2`, the GI50 (NCI-H23) is reported as 57.5 µM (inactive), the GI50 (CCRF-CEM) is reported as 48.8 µM (inactive) and the GI50 (A549) is reported as > 100 µM (inactive). The GI50 (CAKI-1) was > 100 µM (inactive), the GI50 (OVCAR-3) was 58.6 µM (inactive) and the GI50 (UO-31) was > 100 µM (inactive). The GI50 (EKVX) was > 100 µM (inactive), the GI50 (MOLT-4) was 53.8 µM (inactive) and the GI50 (SF-539) was 46.1 µM (inactive). The GI50 (RXF 393) was > 100 µM (inactive), the GI50 (Malme-3M) was 37.2 µM (inactive) and the GI50 (RPMI-8226) was > 100 µM (inactive). The GI50 (SNB-75) was 30.7 µM (inactive), the GI50 (KM12) was > 76.9 µM (inactive) and the GI50 (M19-MEL) was > 80.7 µM (inactive). For the same compound, the GI50 (HOP-92) was 59.6 µM (inactive), the GI50 (DMS-273) was > 100 µM (inactive) and the GI50 (HT-29) was > 100 µM (inactive). For the same compound, the GI50 (SK-MEL-5) was > 100 µM (inactive), the GI50 (HCT-116) was > 100 µM (inactive) and the GI50 (DMS-114) was 51.3 µM (inactive). For the same compound, the GI50 (OVCAR-5) was > 75.5 µM (inactive), the GI50 (U-251) was > 95.9 µM (inactive) and the GI50 (COLO 205) was > 100 µM (inactive). For the same compound, the GI50 (LOX IMVI) was 71.1 µM (inactive), the GI50 (SF-268) was 47.3 µM (inactive) and the GI50 (K562) was 65.9 µM (inactive). For the same compound, the GI50 (SK-OV-3) was > 100 µM (inactive), the GI50 (DLD-1) was > 100 µM (inactive) and the GI50 (UACC-62) was > 78.2 µM (inactive). For the same compound, the GI50 (NCI-H226) was 63.8 µM (inactive), the GI50 (HOP-62) was 48.4 µM (inactive) and the GI50 (KM-20L2) was > 100 µM (inactive). For the same compound, the GI50 (IGROV-1) was > 100 µM (inactive), the GI50 (OVCAR-8) was 62.8 µM (inactive) and the GI50 (A498) was > 100 µM (inactive). The GI50 (NCI-H522) was 26.5 µM (inactive), the GI50 (HCC 2998) was 33 µM (inactive) and the GI50 (SW-620) was > 100 µM (inactive). The GI50 (MCF7) was 29.7 µM (inactive), the GI50 (XF498) was 23.2 µM (inactive) and the GI50 (HCT-15) was over 100 µM. The GI50 (HOP-18) was > 79.3 µM (inactive), the GI50 (SK-MEL-28) was > 100 µM (inactive) and the GI50 (SNB-78) was > 79.8 µM (inactive). For the same compound, the GI50 (OVCAR-4) was > 60.8 µM (inactive), the GI50 (SK-MEL-2) was 48.4 µM (inactive) and the GI50 (SNB-19) was 96.2 µM (inactive). The GI50 (UACC-257) was > 100 µM (inactive), the GI50 (SN12C) was 47.1 µM (inactive) and the GI50 (NCI-H460) was > 95.7 µM (inactive). For the same compound, the GI50 (SF-295) was > 100 µM (inactive), the GI50 (HL-60) was > 100 µM (inactive) and the GI50 (NCI/ADR-RES) was > 89.7 µM (inactive).
`CCN(CC)CCNc1ccc(CO)c2sc3ccccc3c(=O)c12` [HYCANTHONE MESYLATE] was tested, and the GI50 (NCI-H23) was 9.48 µM (inactive), the GI50 (BT-549) was 13.5 µM (inactive) and the GI50 (A549) was 5.08 µM (inactive). For the same compound, the GI50 (CAKI-1) was 9.02 µM (inactive), the GI50 (UO-31) was 4.1 µM (inactive) and the GI50 (EKVX) was 10.5 µM (inactive). The GI50 (MOLT-4) was 1.63 µM (inactive), the GI50 (SF-539) was 11 µM (inactive) and the GI50 (RXF 393) was 5.19 µM (inactive). For the same compound, the GI50 (RPMI-8226) was 12.9 µM (inactive), the GI50 (M19-MEL) was 13.3 µM (inactive) and the GI50 (HOP-92) was 2.75 µM (inactive). The GI50 (DMS-273) was 5.57 µM (inactive), the GI50 (PC-3) was 5.81 µM (inactive) and the GI50 (HCT-116) was 3.34 µM (inactive). For the same compound, the GI50 (DMS-114) was 8.71 µM (inactive), the GI50 (OVCAR-5) was 6.95 µM (inactive) and the GI50 (U-251) was 8.89 µM (inactive). The GI50 (T47D) was 11.5 µM (inactive), the GI50 (SF-268) was 6.7 µM (inactive) and the GI50 (DU-145) was 9.57 µM (inactive). For the same compound, the GI50 (UACC-62) was 14.7 µM (inactive), the GI50 (NCI-H226) was 8.91 µM (inactive) and the GI50 (KM-20L2) was 8.2 µM (inactive). The GI50 (SR) was 2.83 µM (inactive), the GI50 (OVCAR-8) was 5.15 µM (inactive) and the GI50 (MDA-N) was 5.12 µM (inactive). For the same compound, the GI50 (A498) was 6.1 µM (inactive), the GI50 (NCI-H522) was 3.78 µM (inactive) and the GI50 (SW-620) was 2.75 µM (inactive). For the same compound, the GI50 (MDA-MB-435) was 3.27 µM (inactive), the GI50 (XF498) was 11.6 µM (inactive) and the GI50 (SK-MEL-28) was 9.68 µM (inactive). For the same compound, the GI50 (SNB-78) was 13.4 µM (inactive), the GI50 (OVCAR-4) was 4.45 µM (inactive) and the GI50 (SNB-19) was 11.4 µM (inactive). The GI50 (UACC-257) was 11.6 µM (inactive), the GI50 (TK-10) was 12.1 µM (inactive) and the GI50 (NCI-H460) was 3.05 µM (inactive). The GI50 (SF-295) was 8.26 µM (inactive).
In the case of `OC1CCSc2ccccc21` (stereo not drawn), the GI50 (NCI-H23) is reported as > 100 µM (inactive), the GI50 (CCRF-CEM) is reported as > 100 µM (inactive) and the GI50 (A549) is reported as > 100 µM (inactive). The GI50 (CAKI-1) was > 100 µM (inactive), the GI50 (OVCAR-3) was > 100 µM (inactive) and the GI50 (UO-31) was > 100 µM (inactive). For the same compound, the GI50 (EKVX) was > 100 µM (inactive), the GI50 (MOLT-4) was > 100 µM (inactive) and the GI50 (SF-539) was > 100 µM (inactive). The GI50 (RXF 393) was > 100 µM (inactive), the GI50 (Malme-3M) was > 100 µM (inactive) and the GI50 (RPMI-8226) was > 100 µM (inactive). The GI50 (KM12) was > 100 µM (inactive), the GI50 (M19-MEL) was > 100 µM (inactive) and the GI50 (DMS-273) was > 100 µM (inactive). For the same compound, the GI50 (HT-29) was > 100 µM (inactive), the GI50 (SK-MEL-5) was > 100 µM (inactive) and the GI50 (HCT-116) was > 100 µM (inactive). For the same compound, the GI50 (DMS-114) was > 100 µM (inactive), the GI50 (OVCAR-5) was > 100 µM (inactive) and the GI50 (U-251) was > 100 µM (inactive). The GI50 (COLO 205) was > 100 µM (inactive), the GI50 (LOX IMVI) was > 100 µM (inactive) and the GI50 (SF-268) was > 100 µM (inactive). The GI50 (K562) was > 100 µM (inactive), the GI50 (SK-OV-3) was > 100 µM (inactive) and the GI50 (DLD-1) was > 100 µM (inactive). For the same compound, the GI50 (ACHN) was > 100 µM (inactive), the GI50 (UACC-62) was > 100 µM (inactive) and the GI50 (NCI-H226) was > 100 µM (inactive). For the same compound, the GI50 (HOP-62) was > 100 µM (inactive), the GI50 (KM-20L2) was > 100 µM (inactive) and the GI50 (SR) was > 100 µM (inactive). For the same compound, the GI50 (M14) was > 100 µM (inactive), the GI50 (IGROV-1) was > 100 µM (inactive) and the GI50 (OVCAR-8) was > 100 µM (inactive). For the same compound, the GI50 (NCI-H522) was > 100 µM (inactive), the GI50 (HCC 2998) was > 100 µM (inactive) and the GI50 (LXFL 529) was > 100 µM (inactive). For the same compound, the GI50 (SW-620) was > 100 µM (inactive), the GI50 (XF498) was > 100 µM (inactive) and the GI50 (HCT-15) was over 100 µM. The GI50 (HOP-18) was > 100 µM (inactive), the GI50 (SK-MEL-28) was > 100 µM (inactive) and the GI50 (OVCAR-4) was > 100 µM (inactive). For the same compound, the GI50 (SK-MEL-2) was > 100 µM (inactive), the GI50 (SNB-19) was > 100 µM (inactive) and the GI50 (SN12C) was > 100 µM (inactive). For the same compound, the GI50 (NCI-H460) was > 100 µM (inactive).
